Article PMC4581723, “Evaluation of In Vitro Activity of the Class I PI3K Inhibitor Buparlisib (BKM120) in Pediatric Bone and Soft Tissue Sarcomas” (PLoS ONE, 2015)

How the values were obtained:
Format in all cases: cell-based
A4573 = assay: Cell viability assay (MTT), 72 h; conditions: A4573 (ES), PIK3CA WT, read-out: Buparlisib cell viability IC50
RDES = assay: Cell viability assay (MTT), 72 h; conditions: RD-ES, PIK3CA WT, read-out: Buparlisib cell viability IC50
TC-248 = assay: Cell viability assay (MTT), 72 h; conditions: TC-248 (ES), PIK3CA WT, read-out: Buparlisib cell viability IC50
TC-174 = assay: Cell viability assay (MTT), 72 h; conditions: TC-174 (ES), PIK3CA WT, read-out: Buparlisib cell viability IC50
HT161 = assay: Cell viability assay (MTT), 72 h; conditions: HT161 (OS), PIK3CA WT, read-out: Buparlisib cell viability IC50
SK-N-MC = assay: Cell viability assay (MTT), 72 h; conditions: Homo sapiens, SK-N-MC (ES), PIK3CA WT, read-out: Buparlisib cell viability IC50
TTC-475 = assay: Cell viability assay (MTT), 72 h; conditions: TTC-475 (ES), PIK3CA WT, read-out: Buparlisib cell viability IC50
OS 187 = assay: Cell viability assay (MTT), 72 h; conditions: OS 187 (OS), read-out: Buparlisib cell viability IC50
[1] = tested on: ES (TC-174, A4573), OS (KHOS, MNNG), and RMS (RD) colonies; assay: Soft agar assay (anchorage independent growth); conditions: 14 days
Text: After 14 days of growth, colonies were stained with 0.005% crystal violet, imaged, and quantified using ImageJ. […] Increasing concentrations reduced both soft agar colony number and size (Fig 5A). Cell growth was inhibited within a narrower range than observed for anchorage dependent growth. […] (A) Plot of number and size of ES (TC-174, […]), OS (KHOS, MNNG), and RMS (RD) colonies formed in soft agar in the presence of DMSO or increasing concentrations of buparlisib. Columns represent the average of three replicates, error bars represent standard deviation. (B) Representative pictures of TC-174 soft agar colonies. (C) Immunoblot analysis of cleaved PARP in ES (TC-174, TC-32, […]), OS (KHOS), and RMS (RD, SJCRH30) treated with increasing doses of buparlisib for 24 hours. (D) Cell cycle analysis after 24 hours of buparlisib treatment of ES (TC-174, […]), OS (KHOS), and RMS (RD) cell lines. Data are the mean of two independent experiments.

5838 = assay: Cell viability assay (MTT), 72 h; conditions: 5838 (ES), PIK3CA WT, read-out: Buparlisib cell viability IC50
HOS = assay: Cell viability assay (MTT), 72 h; conditions: Homo sapiens, HOS (OS), PIK3CA WT, read-out: Buparlisib cell viability IC50
KHOS 312H = assay: Cell viability assay (MTT), 72 h; conditions: KHOS 312H (OS), read-out: Buparlisib cell viability IC50

Compound: Nc1cc(C(F)(F)F)c(-c2cc(N3CCOCC3)nc(N3CCOCC3)n2)cn1 [Buparlisib]
- IC50 (A4573): 1.56 µM
- IC50 (RDES): 1.12 µM
- IC50 (TC-248): 0.816 µM
- IC50 (TC-174): 1.04 µM
- IC50 (HT161): 1.07 µM
- IC50 (SK-N-MC): 0.899 µM
- IC50 (TTC-475): 1.02 µM
- IC50 (OS 187): 1.54 µM
- concentrations at which no soft agar colony formation occurred [1]: greater than 2 μM
- concentrations with minimal effects on soft agar colony formation [1]: less than 1 μM
- IC50 5838: 1.61 µM
- IC50 (HOS): 1.84 µM
- IC50 (KHOS 312H): 1.59 µM
